Laboratory results taken from patent US7592154B2, “Modulating SOS response induction by antimicrobial agents” (The Board of Trustees of the Leland Stanford Junior …, priority 2005, dated 2009).

What was measured:
RecA protein = assay: Western blot with anti-RecA antibody; assay type: cell-based, E. coli; settings: one hour of exposure, relative to absence of induction
Excerpt: Chemiluminescence of bands was quantitated using a BioRad Versadoc 1000 instrument.

E. coli PBPs = settings: cited from earlier work
[1] = test system: E. coli SC1088 wild-type and dpiA, recA, sfiA null mutants; assay: survival of bacterial cultures exposed to antibiotic (cfu counting); assay type: cell-based; settings: for effectiveness (survival) in recA mutant cells versus wild type SC1088: naladixic acid 5 μg/ml, pipericillin 1 μg/ml, kanamycin 5 μg/ml (FIGS. 5A-5C)
Method: FIG. 4. Effect of SOS response induction on survival of bacterial cells expressing DpiA during β-lactam exposure. […] Survival data are also shown for strains containing null mutations in recA (open diamonds), dpiA (open circles), or sfiA (open triangles). […] Percent survival was determined by counting of colony forming units (cfu's), at least 200 colonies were counted per time point, and plotted as a function of exposure time before exposure or after exposure to antibiotics.
Because β-lactam antibiotics kill only bacteria that are dividing, we hypothesized that the ability of these drugs to induce the SOS response, and consequently delay cell division by increasing the expression of sfiA, may provide temporary protection from β-lactam lethality.
The experiments shown in FIG. 4 were repeated with the antibiotics: naladixic acid, at 5 μg/ml; pipericillin, at 1 μg/ml; and kanamycin at 5 μg/ml. As shown in FIGS. 5A-5C, the black squares are wild type cells, strain SC1088, the green circles are the dpiA null strain in that background, and the red diamonds are the recA mutation in that background.

citC gene = assay: quantitative RT-PCR of citC expression; assay type: cell-based, E. coli; settings: SC1088, 30° C., ampicillin 4 μg/ml for 4 hours (FIG. 1C)
Excerpt: (§1) FIGS. 1A-1C. Structure and transcripts of the dpiBA operon. (A) The dpiB and dpiA genes are aligned in the 5′-3′ direction; citC is 5′ of the dpiBA promoter/operator region and is transcribed divergently from it. The segment of the dpiBA operon included in plasmid pHI1508 is indicated. (B) Agarose gel electrophoresis showing bands generated by reverse transcription PCR amplification of E. coli SC1088 RNA using pairs of oligonucleotide primers corresponding to sequences within dpiB (lane 1, primers a+b), dpiA (lane 2, primers c+d), or both genes (lane 3, primers a+d). Locations of primer sequences are indicated in (A). […] Amounts of template RNA used and loaded onto gels were equal, as assessed by intensity of 16S rRNA bands (bottom panel).

[2] = test system: SOS-regulated promoter of the sfiA gene; assay: sfiA/lacZ fusion, measure of SOS response; assay type: cell-based, E. coli
Excerpt: FIGS. 3A-3B. SOS response induced by PBP3 inactivation. […] Both (A) and (B) are averages of three separate experiments. Strains were constructed by P1 transduction. Strain 1088 was transduced with phage P1 from E. coli strains containing recA::Tn10(S3) and lexA71::Tn5 (from Mary Berlyn, CGSC). Strain BR5171 is BR3151 (S4) containing a kanamycin resistance gene introduced into the dpiA locus to create a null mutation; another BR3151 derivative, BR7171, contains a Tn10 insertion in the recA locus to create a null mutation. […] An sfiA/lacZ fusion closely linked to a kanamycin resistance marker (S5) was incorporated into the chromosome of ftsIts strain JOE339 and a JOE339 derivative containing a chloramphenicol resistance gene in the dpiA gene (S1).
A biological consequence of DpiA overexpression is induction of the SOS response; the extent of such induction can be determined by β-galactosidase synthesis from a lacZ fusion with the SOS-regulated promoter of the sfiA gene [e.g. Bacolla et al. (2001) J. Biol. Chem. 276, 18579; Hendricks et al. (2000) Mol. Microbiol. 36, 973], which prevents FtsZ polymerization and inhibits cell division when SOS is activated.
The dependence of β-lactam/PBP3-mediated SOS induction on dpiA contrasted with the lack of effect of the dpiA mutation on RecA expression induced by the DNA damaging agent mitomycin C, indicating the distinctive nature of the cell wall-mediated and DNA damage-mediated paths to SOS induction.

dpiBA transcripts = assay: quantitative RT-PCR of dpiBA transcripts; assay type: cell-based, E. coli; settings: SC1088, 30° C., ampicillin 4 μg/ml for 4 hours (FIG. 1C)
Excerpt: as §1

[3] = test system: dpiB promoter (dpiBA operon); assay: dpiB/lacZ reporter fusion (pHI1508), β-galactosidase synthesis; assay type: cell-based, E. coli; settings: for expression of the dpi operon (lacZ reporter fusion to the dpiB promoter): E. coli UT481 pHI1508, 30° C., antibiotics at approximately twice the MIC (FIG. 2A)
Method: FIGS. 2A-2C. […] (A) Expression of the dpi operon as measured in lacZ^− E. coli strain UT481 by a lacZ reporter fusion to the dpiB promoter on pHI1508 [in Miller units]. Bacteria were grown at 30° C. with or without (black squares) antibiotics. […] All antibiotics were added at approximately twice the MIC value for E. coli. All points represent the average of at least three separate experiments. (B) Induction of dpiB/lacZ (as measured by β-galactosidase expression calculated in Miller units) in E. coli JOE339, a lacZ^− mutant strain that carries an ftsl^ts mutation. […] (C) Same as (B) but in MC4100, the parent of JOE339. For (B) and (C), bars indicate SD.
We wished to identify stimuli that activate the dpiBA operon; to monitor such activation, we fused a Hind III-Sma I DNA segment containing the region 5′ to dpiB to a lacZ reporter gene fragment (pHI1508 in FIG. 1A) pHI1508 carries a HindIII-SmaI fragment containing the dpiBA operator/promoter and the first 1219 nucleotides of dpiB (indicated by the heavy bar), inserted into the StuI-HindIII sites of pHI1496, fusing it to the lacZ reporter gene (S1). β-Galactosidase synthesis from this construct was investigated under a variety of growth-limiting conditions known to activate two-component systems and/or the SOS response (including growth in media containing different carbon sources; starvation for O2, PO4, or carbon; heat or cold shock; high salt; exposure to ultraviolet light; culture in stationary phase or in conditioned media; and concentration to a high cell density).

[4] = test system: pabA promoter (gene up-regulated by DpiA); assay: pabA/lacZ fusion (pHI1627), β-galactosidase production; assay type: cell-based, E. coli; settings: ampicillin 10 μg/ml, 2 hours, 37° C.
Excerpt: A library of E. coli promoters fused to a lacZ gene fragment was constructed as follows: SC1088 chromosomal DNA was partially digested with Sau3AI and 1-2 kb fragments were gel extracted, purified, and ligated to the BamHI site of pHI1496, a lacZ expression vector conferring chloramphenicol resistance (S1). […] Three clones were sequenced and found to contain a 5 kb insert in which the melR promoter region was fused to lacZ (pHI1626), a 300 bp fragment that includes the promoter region of pabA (pHI1627), and a 2.5 kb insert containing the 57-minute region of the E. coli chromosome (pHI1628).

[5] = test system: dpiB promoter (dpiBA operon); assay: dpiB/lacZ reporter fusion (pHI1508), β-galactosidase synthesis; assay type: cell-based, E. coli; settings: ampicillin 10 μg/ml, 2 hours, 37° C.

CC1(C)S[C@@H]2[C@H](NC(=O)[C@H](N)c3ccccc3)C(=O)N2[C@H]1C(=O)O [ampicillin]
RecA protein increase (RecA protein; dpiA::Km null mutant): no increase
RecA protein increase (RecA protein; wt strain 1088, 4 μg/ml): 1.9±0.4 fold
binding to E. coli PBPs (E. coli PBPs): binds to all 12 E. coli PBPs
cells unable to form colonies ([1]; cells mutated in dpiA, recA, or sfiA, 1 hour exposure, 3 μg/ml): 90%
exposure required for the same extent of killing (90%) of wild-type cells ([1]; 3 μg/ml): 4 h
exposure required for the same extent of killing (90%) of wild-type cells ([1]; 9 μg/ml): 1 h
increase in expression of citC gene (citC gene): threefold
lacZ expression from sfiA/lacZ fusion ([2]; BR3151, ampicillin 4 μg/ml (FIG. 3A)): increased lacZ expression
sfiA/lacZ expression ([2]; bacteria containing a dpiA null mutation, ampicillin 4 μg/ml (FIG. 3A)): no change
effect on expression of the sfiA/lacZ fusion ([2]; recA or lexA mutants, ampicillin treatment (FIG. 3A)): prevented the effects
increase in dpiBA transcripts (dpiBA transcripts): fourfold
expression of the dpi operon (lacZ reporter fusion to the dpiB promoter) [3]: stimulated
induction of the dpi operon ([3]; ampicillin resistant bacteria carrying a plasmid borne gene encoding β-lactamase): not observed
β-Galactosidase production ([4]; WT strain 1088 + pHI1627): 185 ± 20 Miller units
β-Galactosidase production ([4]; dpiA null mutant + pHI1627): 18 ± 1 Miller units
β-Galactosidase production ([5]; WT strain 1088 + pHI1508): 345 ± 50 Miller units
β-Galactosidase production ([5]; dpiA null mutant + pHI1508): 113 ± 15 Miller units
β-Galactosidase production ([5]; lexA null mutant + pHI1508): 110 ± 10 Miller units
β-Galactosidase production ([5]; recA null mutant + pHI1508): 80 ± 8 Miller units

CO/N=C(\C(=O)N[C@@H]1C(=O)N2C(C(=O)O)=C(COC(N)=O)CS[C@H]12)c1ccco1 [cefuroxan]
expression of the dpi operon (lacZ reporter fusion to the dpiB promoter) [3]: stimulated

CC1=C(C(=O)O)N2C(=O)[C@@H](NC(=O)[C@H](N)c3ccccc3)[C@H]2SC1 [cephalexin]
binding to E. coli PBPs (E. coli PBPs): bind only to PBP3
expression of the dpi operon (lacZ reporter fusion to the dpiB promoter) [3]: stimulated

CO[C@@]12[C@H](COC(N)=O)C3=C(C(=O)C(C)=C(N)C3=O)N1C[C@@H]1N[C@@H]12 [mitomycin C]
RecA protein increase (RecA protein; dpiA::Km null mutant): 2.0±0.3 fold
RecA protein increase (RecA protein; wt strain 1088, 4 μg/ml): 1.5±0.2 fold

CCn1cc(C(=O)O)c(=O)c2ccc(C)nc21 [nalidixic acid]
effectiveness (survival) in recA mutant cells versus wild type SC1088 [1]: more effective

CCN1CCN(C(=O)N[C@@H](C(=O)N[C@@H]2C(=O)N3[C@@H]2SC(C)(C)[C@@H]3C(=O)O)c2ccccc2)C(=O)C1=O [pipericillin]
binding to E. coli PBPs (E. coli PBPs): bind only to PBP3
survival relative to the number before addition of antibiotic ([1]; dpiA mutant bacteria, overnight exposure, 2 μg/ml): 0.001%
effectiveness (survival) in recA mutant cells versus wild type SC1088 [1]: more effective
surviving wild-type bacteria versus dpiA mutant bacteria ([1]; overnight exposure, 2 μg/ml): 10 times
survival relative to the number before addition of antibiotic ([1]; wild-type bacteria, overnight exposure, 2 μg/ml): 0.01%
expression of the dpi operon (lacZ reporter fusion to the dpiB promoter) [3]: stimulated

penicillin
expression of the dpi operon (lacZ reporter fusion to the dpiB promoter) [3]: stimulated
